Data taken from patent publication US20250381220A1, “MAGNESIUM-L-THREONATE AND NEUROTRANSMITTER COMPOSITIONS AND RELATED METHODS” (Neuro Supplements, LLC, priority 2020, published 2025).

Test system: Male Wistar Rats
Test: Morris Water Maze (MWM) probe test
Type: in vivo, rat
Conditions: 21 days through drinking water, probe test day 21, FIG. 4, MgT 435, PS 60 mg/kg bw/day

Substance: phosphatidylserine [PS]
- time spent in target quadrant: significant increase
